From patent US5420157A, “Inhibitors of farnesyl protein transferase or prodrugs thereof” (Merck & Co., Inc., priority 1991, dated 1995)
Structures can show the parent of a compound that is named as a salt.

Tests used:
[1] = target: T1, Farnesyl-protein transferase (FTase) (Bos taurus, UniProt P29702+P49355); assay: Inhibition of Ras farnesylation in vitro (FTase inhibition, Ras-CVLS and [3H]FPP); format: biochemical, bovine; settings: for IC50: Ras-CVLS 3.5 μM, 0.25 μM [3H]FPP, partially purified FTase from bovine brain, assay buffer pH 7.5
T1 construct: Farnesyl-protein transferase (FTase) from bovine brain; from tissue; host or cells: bovine brain, partially purified (DEAE-Sephacel, N-octyl agarose, mono Q)
Method: The intrinsic farnesyl-protein transferase (FTase) activity of representative compounds of this invention was measured by the assay as described below:
Farnesyl-protein transferase (FTase) from bovine brain was chromatographed on DEAE-Sephacel (Pharmacia, 0-0.8M NaCl gradient elution), N-octyl agarose (Sigma, 0-0.6M NaCl gradient elution), and a mono Q HPLC column (Pharmacia, 0-0.3M NaCl gradient). Ras-CVLS (Cys-Val-Leu-Ser) at 3.5 μM, 0.25 μM [^3 H]FPP, and the indicated compounds were incubated with this partially purified enzyme preparation. The FTase inhibition data presented below is a measurement of the ability of the test compound to inhibit Ras farnesylation in vitro.

[2] = Equilibrium between diacid (10) and anhydride (9) in solution, pH dependence (UV); format: physicochemical; settings: for Predominant form in anhydride/diacid equilibrium: in solution, pH dependent
Text: The equilibrium between diacid (10) and anhydride (9) in a solution is pH dependent. […] However, when basified with dil NaOH, this maximum shifted to ^λ max 243 nm. This shift is clear evidence of opening of the anhydride into the diacid.
(§1) The latter band under went a hypsochromic shift to […] after addition of dil NaOH.

[3] = Reaction of anhydride (9) with CH3OH; format: physicochemical; settings: methanolic solution
Text: as §1

IC50 [1] [nM] | Predominant form in anhydride/diacid equilibrium [2] | Reactivity with CH3OH [3] | SMILES | Form present under assay conditions ([2]; CH3OH-HEPES buffer (7:5), pH 7.5, UV maximum 243 nm) | RAS farnesyl transferase inhibitory activity of trapped diacid salt ([1]; open diacid form (10) trapped as diisopropylethylamine salt)
46 | predominates when the solution is acidic | reacts slowly with CH3 OH | CCCCCCCCCCCCCCC1=C(C)C(=O)OC1=O [Compound (9)] | exits in the open dicarboxylate form of compound (10) | 
46 | predominates when the solution is basic |  | CCCCCCCCCCCCCC/C(C(=O)O)=C(\C)C(=O)O [Compound (10)] |  | 
 |  |  | CCCCCCCCCCCCCC/C(C(=O)O)=C(\C)C(=O)O [diisopropylethylamine salt] |  | without any loss of RAS farnesyl transferase inhibitory activity
